According to US20110009421A1, “COMPOUND HAVING 6-MEMBERED AROMATIC RING” (TAKEDA PHARMACEUTICAL COMPANY LIMITED, priority 2008, published 2011):

Target: T1, human GPR52 (Homo sapiens, UniProt Q9Y2T5)
T1 construct: expressed in transfected cells; host or cells: CHO (dhfr-) cells
Assay: Increased intracellular cAMP levels in human GPR52 expression CHO cells (AlphaScreen cAMP assay)
Assay type: cell-based
Conditions: 1 μM test compound, 30 min at 37° C., human GPR52 expression CHO (dhfr−) cells; intracellular cAMP level, 100% = 1 μM 3-(6-(2-(3,4-dimethoxyphenyl)ethoxy)pyridin-2-yl)-N-(2-pyrrolidin-1-ylethyl)benzamide, 0% = DMSO
Protocol: Increased Intracellular cAMP Levels in Human GPR52 Expression CHO Cells
1×10^4 human GPR52 expression CHO (dhfr−) cells were incubated with 1 μM test compound for 30 min at 37° C. in 30 μL assay buffer (HBSS (containing Ca^2+ and Mg^2+), 0.5% BSA, 100 μM IBMX, 100 μM Ro 20-1724, 5 mM HEPES (pH 7.55)) using an OptiPlate-384 (by PerkinElmer). The intracellular cAMP level was then assayed with an EnVision (by PerkinElmer) according to the protocol of the AlphaScreen cAMP Assay Kit (by PerkinElmer). The GPR52 agonist activity was calculated, assuming the intracellular cAMP level to be 100% in the presence of 1 μM of 3-(6-(2-(3,4-dimethoxyphenyl)ethoxy)pyridin-2-yl)-N-(2-pyrrolidin-1-ylethyl)benzamide obtained in Reference Example 39 and assuming the intracellular cAMP level to be 0% when DMSO was added instead of test compound.

T1 sequence (Q9Y2T5 whole entry): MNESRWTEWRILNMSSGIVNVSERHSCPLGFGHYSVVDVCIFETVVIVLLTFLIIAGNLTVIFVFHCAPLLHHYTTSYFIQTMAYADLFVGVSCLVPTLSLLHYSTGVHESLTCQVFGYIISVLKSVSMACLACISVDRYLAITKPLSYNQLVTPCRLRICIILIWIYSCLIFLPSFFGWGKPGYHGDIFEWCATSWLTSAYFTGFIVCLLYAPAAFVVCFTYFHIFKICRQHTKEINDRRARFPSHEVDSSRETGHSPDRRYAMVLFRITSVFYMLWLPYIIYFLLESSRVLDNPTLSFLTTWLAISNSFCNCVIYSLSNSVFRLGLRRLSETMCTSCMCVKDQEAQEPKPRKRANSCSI

| Structure (SMILES) | GPR52 agonist activity (%) |
| --- | --- |
| N#CCCNC(=O)c1cccc(-c2cccc(Oc3cc(Cl)cc(Cl)c3)n2)c1 [Working Example 121, N-(2-Cyanoethyl)-3-(6-(3,5-dichlorophenoxy)pyridin-2-yl)benzamide] | 51% |
| N#CCCNC(=O)c1cccc(-c2cccc(Oc3cccc(Cl)c3)n2)c1 [Working Example 125, 3-(6-(3-Chlorophenoxy)pyridin-2-yl)-N-(2-cyanoethyl)benzamide] | 55% |
| N#CCCNC(=O)c1cccc(-c2cccc(Oc3cncc(Cl)c3)n2)c1 [Working Example 134, 3-(6-((5-Chloropyridin-3-yl)oxy)pyridin-2-yl)-N-(2-cyanoethyl)benzamide] | 48% |
| COc1ccccc1CCNc1nccc(-c2cccc(C(=O)NCCN3CCCC3)c2)n1 [Working Example 138] | 104% |
| COc1ccc(CCNc2nccc(-c3cccc(C(=O)NCCN4CCCC4)c3)n2)cc1OC [Working Example 141] | 113% |
| O=C(NCCN1CCCC1)c1cccc(-c2ccnc(NCCc3cccc(F)c3)n2)c1 [Working Example 143] | 72% |
| O=C(NCCN1CCCC1)c1cccc(-c2ccnc(NCCc3cccc(C(F)(F)F)c3)n2)c1 [Working Example 146, N-(2-pyrrolidin-1-ylethyl)-3-[2-({2-[3-(trifluoromethyl)phenyl]ethyl}amino)pyrimidin-4-yl]benzamide] | 135% |
| O=C(NCCN1CCCC1)c1cccc(-c2ccnc(NCCc3cccs3)n2)c1 [Working Example 152] | 64% |
| O=C(NCCN1CCCC1)c1cccc(-c2ccnc(NCCc3ccc(F)c(Cl)c3)n2)c1 [Working Example 164] | 107% |
| O=C(NCCN1CCCC1)c1cccc(-c2ccnc(NCCc3ccc(Cl)c(F)c3)n2)c1 [Working Example 165] | 68% |
| COc1cc(CCNc2nccc(-c3cccc(C(=O)NCCN4CCCC4)c3)n2)ccc1F [Working Example 166] | 109% |
| CNC(=O)c1cccc(-c2cccc(OCCc3ccc(OC)c(OC)c3)n2)c1 [Working Example 167] | 68% |
| COc1ccc(CCOc2cccc(-c3cccc(C(=O)NCCCO)c3)n2)cc1OC [Working Example 170] | 79% |
| COc1ccc(CCOc2cccc(-c3cccc(C(=O)NCCC(N)=O)c3)n2)cc1OC [Working Example 175] | 110% |
| COc1ccc(CCOc2cccc(-c3cccc(C(=O)NCCc4ccncc4)c3)n2)cc1OC [Working Example 201] | 85% |
| COc1ccc(CCOc2cccc(-c3cccc(C(=O)NCCCn4ccnc4)c3)n2)cc1OC [Working Example 203] | 97% |
| COc1ccc(CCOc2cccc(-c3cccc(C(=O)NCCNc4ccccc4)c3)n2)cc1OC [Working Example 208] | 67% |
| COc1ccc(CCOc2cccc(-c3cccc(C(=O)Nc4ccccn4)c3)n2)cc1OC [Working Example 219] | 94% |
| COc1ccc(CCOc2cccc(-c3cccc(C(=O)Nc4ccc5ncccc5c4)c3)n2)cc1OC [Working Example 227] | 65% |
| COc1ccc(CCOc2cccc(-c3cccc(NC(=O)[C@@H]4CSC(=O)N4)c3)n2)cc1OC [Working Example 245] | 58% |
| COc1ccc(CCOc2cccc(-c3cccc(NC(=O)Cn4ccnc4)c3)n2)cc1OC [Working Example 302] | 57% |
| COc1ccc(CCOc2cccc(-c3cccc(NC(=O)CC4NCCc5ccccc54)c3)n2)cc1OC (stereo not shown) [Working Example 318] | 82% |
